Results published in patent US11851642B2, “Test device” (HITACHI HIGH-TECH CORPORATION, priority 2015, dated 2023).
Where “and” joins values, the source holds several entries; their conditions need not be identical. Equal values may be shown once. Each block holds one compound with its values, some of them ahead of it.

Columns and labels:
Assay type in all cases: cell-based
[1] = system: Pseudomonas aeruginosa; assay: antimicrobial susceptibility testing by microscopic observation, circularity of the bacteria
Experimental: (§1) In addition, when an examination is performed by using the bacteriological testing instrument 1, culture is performed by mixing a bacterial suspension prepared from a specimen with a culture fluid in the culture plate (for example, a culture plate which has 96 wells in total is used) 18. In order to perform the antimicrobial susceptibility testing, antimicrobial agents different from each other are set so as to be respectively contained in the culture fluids in each of the wells in particular concentrations. An order of the culturing is as follows. First, the bacterial suspension is introduced into the culture plate 18. Then, the bacterial suspension is in a state of being mixed with the culture fluid which is included in each of the wells, and the temperature controller 16 is set to a temperature of approximately 35° C. Furthermore, culture is performed by performing incubation such that the temperature of each of the wells in the culture plate 18 reaches the set temperature. Then, in the bacteriological testing instrument 1, while performing the incubation, the bacteria included in each of the wells can be monitored through the microscopic observation optical system. The microscopic observation may be performed for a set period of time from the start of the incubation till the end thereof by continuously monitoring the state of bacterial proliferation. In addition, the monitoring may be performed at the set time after setting appropriate time, and the monitoring result can be compared with the monitoring result when the incubation is started. In addition, similar to the bacteriological testing instrument in the related art, the turbidity of each of the wells may be measured through the turbidity measurement optical system while incubating the culture plate 18. The measured result may be compared with the monitored result of the microscopic observation optical system.
FIG. 22 is a view (graph) illustrating a result obtained by antimicrobial susceptibility testing with respect to meropenem of Pseudomonas aeruginosa. The graph acquires the circularity of the Pseudomonas aeruginosa in the image measured through the microscopic observation, and illustrates the time-dependent change thereof. The plurality of Pseudomonas aeruginosa are observed in one image, but the circularity of each of the Pseudomonas aeruginosa is acquired, and the value obtained by calculating an average value of the bacteria in the image is plotted. In addition, the circularity is a value calculated by 4π×(area)/(perimeter length)^2. When the bacteria have a completely circular shape, 4π×πr^2/(2πr) ^2=1 is satisfied, and when the bacteria is deviated from a completely circular shape, the perimeter length increases, and thus, the circularity value decreases.
In the graph, in a case where there is no the antimicrobial agent to be plotted by a “rhomboidal (diamond) shape”, the circularity of the Pseudomonas aeruginosa was hardly changed from the start of culture. […] In addition, when the concentration of meropenem of which the decrease in circularity is stopped is 0.5 μg/mL or greater, it is determined that the Pseudomonas aeruginosa becomes extinct. In a case where the bacteria are not extinct, the shape of the bacteria changes. […] The exemplary embodiment is an example in which the time-dependent change of the circularity of the bacteria is plotted instead of plotting the time-dependent change of the areas of the bacteria. However, in this manner, by plotting the time-dependent change of the feature values that become an index for indicating a degree of proliferation or growth of the bacteria in addition to the bacterial numbers or the areas of the bacteria, not only the minimum inhibitory concentration (MIC) of the bacteria but also the minimum bactericidal concentration (MBC) can be determined.

[2] = system: Staphylococcus aureus separated from the patient A; assay: antimicrobial susceptibility testing by microscopic observation, areas of the bacteria; details: for antimicrobial susceptibility determination (comparison with the break points): FIG. 20(a)
Source text: as §1, with “In” for “In addition, when an examination is performed by using the bacteriological testing instrument 1, culture is performed by mixing a bacterial suspension prepared from a specimen with a culture fluid in the culture plate (for example, a culture plate which has 96 wells in total is used) 18. In”
(§2) The processor determines whether the bacteria proliferate or the proliferation is interrupted under the corresponding culture condition, based on the microscopic image to which the above-described necessary treatments are performed. The determination whether or not the proliferation is performed, is performed by comparing with the information obtained based on the images at different times in the same container. More specifically, based on the image after the treatment illustrated in FIGS. 4 to 6, for example, the areas of the bacteria are calculated, and it is determined whether or not the proliferation is performed by creating the graph as illustrated in FIG. 12.
(§3) The processor combines the information on whether or not the proliferation is performed under the culture condition with a combination of a certain concentration of the antimicrobial agent, and determines the minimum concentration of the antimicrobial agent (MIC, minimum inhibitory concentration) which becomes interruption of proliferation. Here, the MIC determination is performed with respect to all of the wells provided on the culture plate 21. For example, there are 96 wells on the culture plate 21, and various types of antimicrobial agents having different concentrations (for example, 0 μg/mL, 0.5 μg/mL, 1 μg/mL, 2.0 μg/mL, 4.0 μg/mL, 8.0 μg/mL, 16.0 μg/mL, . . . ) enter the wells.

[3] = system: Staphylococcus aureus separated from the patient B; assay: as above; details: for antimicrobial susceptibility determination (comparison with the break points): FIG. 20(b)
Source text: as §1, with “In” for “In addition, when an examination is performed by using the bacteriological testing instrument 1, culture is performed by mixing a bacterial suspension prepared from a specimen with a culture fluid in the culture plate (for example, a culture plate which has 96 wells in total is used) 18. In”
as §2, §3

[4] = system: E coli (ATCC25922); assay: antimicrobial susceptibility testing by microscopic observation (binarized images); details: ampicillin 2 μg/mL in culture fluid; 180 minutes from the start of culture (FIG. 5(b))
Experimental: as §1, with “C. […]” for “C. Furthermore, culture is performed by performing incubation such that the temperature of each of the wells in the culture plate 18 reaches the set temperature.”, “system. […]” for “system. The microscopic observation may be performed for a set period of time from the start of the incubation till the end thereof by continuously monitoring the state of bacterial proliferation. In addition, the monitoring may be performed at the set time after setting appropriate time, and the monitoring result can be compared with the monitoring result when the incubation is started.”, “system. […]” for “system.”

[5] = system: E coli separated from a patient A; assay: antimicrobial susceptibility testing by microscopic observation, areas of the bacteria
Experimental: as §1, §2
as §3, with “wells. Therefore, the minimum concentration (MIC) of the antimicrobial agent which becomes interruption of proliferation can be ascertained.” for “wells.”
(§4) The processor further determines whether the bacteria of the examination target is sensitive (S), resistant (R), and intermediate (I) with respect to the corresponding antimicrobial agent by comparing with a break point (a break point of Clinical and Laboratory Standards Institute (CLSI), a break point of Japanese Society of Chemotherapy, or a break point of EUCAST) which is stored as reference data. […]

[6] = system: E coli separated from a patient B; assay: as above
Experimental: as §1, §2
as §3, with “wells. Therefore, the minimum concentration (MIC) of the antimicrobial agent which becomes interruption of proliferation can be ascertained.” for “wells.”
as §4

[7] = system: Enterococcus faecalis (ATCC29212); assay: as above; parameters: key: Waiting is determined, and “W” is displayed; Growth is determined, and “G” is displayed; Inhibit is determined, and “I” is displayed
Experimental: as §1, with “The microscopic observation may be performed for a set period of time from the start of the incubation till the end thereof by continuously monitoring the state of bacterial proliferation. In addition, the monitoring may be performed at the set time after setting appropriate time, and the monitoring result can be compared with the monitoring result when the incubation is started.” left out
as §2, with “The determination whether or not the proliferation is performed, is performed by comparing with the information obtained based on the images at different times in the same container.” left out, “12. […]” for “12.”

SMILES: C[C@@H](O)[C@H]1C(=O)N2C(C(=O)O)=C(S[C@@H]3CN[C@H](C(=O)N(C)C)C3)[C@H](C)[C@H]12 [meropenem]
concentration at which the circularity continues to decrease: bacteria elongated but not become extinct yet ([1]; FIG. 22): 0.125 µg/mL and 0.25 µg/mL
concentration at which the decrease in circularity is stopped: bacteria become extinct (can be estimated as MBC) ([1]; FIG. 22): ≥ 0.5 µg/mL
time from the start of culture after which the circularity starts to decrease ([1]; meropenem 0.25 μg/mL, bacteria elongated (FIG. 22)): 90 min
time-dependent change of the circularity ([1]; meropenem 0.5 μg/mL (FIG. 22)): slightly decreases
time-dependent change of the circularity ([1]; meropenem 1.0 μg/mL (FIG. 22)): slightly decreases
time-dependent change of the circularity ([1]; meropenem 2.0 μg/mL (FIG. 22)): slightly decreases

SMILES: CN[C@H](CC(C)C)C(=O)N[C@H]1C(=O)N[C@@H](CC(N)=O)C(=O)N[C@H]2C(=O)N[C@H]3C(=O)N[C@H](C(=O)N[C@H](C(=O)O)c4cc(O)cc(O)c4-c4cc3ccc4O)[C@H](O)c3ccc(c(Cl)c3)Oc3cc2cc(c3O[C@@H]2O[C@H](CO)[C@@H](O)[C@H](O)[C@H]2O[C@H]2C[C@](C)(N)[C@H](O)[C@H](C)O2)Oc2ccc(cc2Cl)[C@H]1O [vancomycin]
antimicrobial susceptibility determination (comparison with the break points) [2]: sensitivity
concentration at which the proliferation is performed ([2]; images within 300 minutes from the start of culture (FIG. 18, FIG. 19(a))): 0.25 µg/mL
antimicrobial susceptibility determination (comparison with the break points) [3]: Intermediate
concentration at which the proliferation is performed ([3]; images within 300 minutes from the start of culture (FIG. 18, FIG. 19(b))): ≤ 0.5 µg/mL

proliferation determination result (MIC determination result) ([5]; all ampicillin conditions (FIG. 16(a))): determined to proliferate
concentration at which the proliferation is interrupted (MIC determination result) ([6]; after 180 minutes from the start of culture (FIG. 16(b))): ≥ 8 µg/mL
SMILES: CC1(C)S[C@@H]2[C@H](NC(=O)[C@H](N)c3ccccc3)C(=O)N2[C@H]1C(=O)O [ampicillin]
state of the bacteria in the microscopic observation image [4]: elongated
sensitivity determination (comparison with the break points) ([5]; FIG. 17(a)): durability
time-dependent change of the areas of the bacteria (standardized by the areas at start of culture) ([5]; ampicillin 512 μg/mL, compared to no antimicrobial agent (FIG. 15(a))): slightly increases
time-dependent change of the areas of the bacteria (standardized by the areas at start of culture) ([6]; ampicillin 4 μg/mL (FIG. 15(b))): increase tends to be stopped
time-dependent change of the areas of the bacteria (standardized by the areas at start of culture) ([6]; ampicillin 8 μg/mL or greater (FIG. 15(b))): area tends to decrease
antimicrobial susceptibility determination (comparison with the break points) [2]: resistance
antimicrobial susceptibility determination (comparison with the break points) [3]: Intermediate

SMILES: C[C@H]1COc2c(N3CCN(C)CC3)c(F)cc3c(=O)c(C(=O)O)cn1c23 [levofloxacin]
proliferation determination result ([7]; levofloxacin 0.5 μg/mL, after 120 minutes (FIG. 13)): G
proliferation determination result ([7]; levofloxacin 1.0 μg/mL, after 150 minutes (FIG. 13)): I
proliferation determination result ([7]; levofloxacin 2.0 μg/mL, after 150 minutes (FIG. 13)): I
